Data on 43 compounds can be found in patent US10781189B2, “1,2,4-Oxadiazole and thiadiazole compounds as immunomodulators” (Aurigene Discovery Technologies Limited, priority 2015, dated 2020).

The assay deals with T1, Recombinant mouse PD-L1 (Mus musculus, UniProt Q9EP73).
T1 construct: Fc (Fc chimera); purchased R&D Systems 1019-B7-100
Nature of the assay: Rescue of mouse splenocyte proliferation in the presence of recombinant PD-L1 (CFSE proliferation assay). The format is cell-based. To be noted: 100 nM compound; CFSE-labelled C57 BL6 mouse splenocytes + anti-CD3/CD28 + PD-L1 (100 ng/mL), 72 h; normalised to stimulated splenocytes as 100%; read-out: Percent rescue of splenocyte proliferation (@100 nM). The procedure:
Example 15: Rescue of Mouse Splenocyte Proliferation in the Presence of Recombinant PD-L1
Recombinant mouse PD-L1 (rm-PDL-1, cat no: 1019-B7-100; R&D Systems) were used as the source of PD-L1.
Mouse splenocytes harvested from 6-8 weeks old C57 BL6 mice; RPMI 1640 (GIBCO, Cat #11875); DMEM with high glucose (GIBCO, Cat # D6429); Fetal Bovine Serum [Hyclone, Cat # SH30071.03]; Penicillin (10000 unit/mL)-Streptomycin (10,000 μg/mL) Liquid (GIBCO, Cat #15140-122); MEM Sodium Pyruvate solution 100 mM (100×), Liquid (GIBCO, Cat #11360); Nonessential amino acid (GIBCO, Cat #11140); L-Glutamine (GIBCO, Cat #25030); Anti-CD3 antibody (eBiosciences—16-0032); Anti-CD28 antibody (eBiosciences—16-0281); ACK lysis buffer (1 mL) (GIBCO, Cat #-A10492); Histopaque (density-1.083 gm/mL) (SIGMA 10831); Trypan blue solution (SIGMA-T8154); 2 mL Norm Ject Luer Lock syringe-(Sigma 2014-12); 40 μm nylon cell strainer (BD FALCON 35230); Hemacytometer (Bright line-SIGMA Z359629); FACS Buffer (PBS/0.1% BSA): Phosphate Buffered Saline (PBS) pH 7.2 (HiMedia TS1006) with 0.1% Bovine Serum Albumin (BSA) (SIGMA A7050) and sodium azide (SIGMA 08591); 5 mM stock solution of CFSE: CFSE stock solution was prepared by diluting lyophilized CFSE with 180 μL of Dimethyl sulfoxide (DMSO C2H6SO, SIGMA-D-5879) and aliquoted in to tubes for further use. Working concentrations were titrated from 10 μM to 1 μM. (eBioscience—650850-85); 0.05% Trypsin and 0.02% EDTA (SIGMA 59417C); 96-well format ELISA plates (Corning CLS3390); BD FACS caliber (E6016); Recombinant mouse B7-H1/PDL1 Fc Chimera, (rm-PD-L1 cat no: 1019-B7-100).
Splenocytes harvested in a 50 mL falcon tube by mashing mouse spleen in a 40 μm cell strainer were further treated with 1 mL ACK lysis buffer for 5 min at room temperature. After washing with 9 mL of RPMI complete media, cells were re-suspended in 3 mL of 1×PBS in a 15 mL tube. 3 mL of Histopaque was added carefully to the bottom of the tube without disturbing overlaying splenocyte suspension. After centrifuging at 800×g for 20 min at room temperature, the opaque layer of splenocytes was collected carefully without disturbing/mixing the layers. Splenocytes were washed twice with cold 1×PBS followed by total cell counting using Trypan Blue exclusion method and used further for cell based assays.
Splenocytes were cultured in RPMI complete media (RPMI+10% fetal bovine serum+1 mM sodium pyruvate+10,000 units/mL penicillin and […] streptomycin) and maintained in a CO2 incubator with 5% CO2 at 37° C.
CFSE is a dye that passively diffuses into cells and binds to intracellular proteins. 1×10^6 cells/mL of harvested splenocytes were treated with 5 μM of CFSE in pre-warmed 1×PBS/0.1% BSA solution for 10 min at 37° C. Excess CFSE was quenched using 5 volumes of ice-cold culture media to the cells and incubated on ice for 5 min. CFSE labelled splenocytes were further given three washes with ice cold complete RPMI media. CFSE labelled 1×10^5 splenocytes added to wells containing either MDA-MB231 cells (1×10^5 cells cultured in high glucose DMEM medium) or recombinant human PDL-1 (100 ng/mL) and test compounds. Splenocytes were stimulated with anti-mouse CD3 and anti-mouse CD28 antibody (1 μg/mL each) and the culture was further incubated for 72 h at 37° C. with 5% CO2. Cells were harvested and washed thrice with ice cold FACS buffer and % proliferation was analysed by flow cytometry with 488 nm excitation and 521 nm emission filters.
Percent splenocyte proliferation was analysed using cell quest FACS program and percent rescue of splenocyte proliferation by compound was estimated after deduction of % background proliferation value and normalising to % stimulated splenocyte proliferation (positive control) as 100%.
Stimulated splenocytes: Splenocytes+anti-CD3/CD28 stimulation
Background proliferation: Splenocytes+anti-CD3/CD28+PD-L1
Compound proliferation: Splenocytes+anti-CD3/CD28+PD-L1+Compound […]

T1 sequence (Q9EP73 with tags, fused parts or gaps limits assumed): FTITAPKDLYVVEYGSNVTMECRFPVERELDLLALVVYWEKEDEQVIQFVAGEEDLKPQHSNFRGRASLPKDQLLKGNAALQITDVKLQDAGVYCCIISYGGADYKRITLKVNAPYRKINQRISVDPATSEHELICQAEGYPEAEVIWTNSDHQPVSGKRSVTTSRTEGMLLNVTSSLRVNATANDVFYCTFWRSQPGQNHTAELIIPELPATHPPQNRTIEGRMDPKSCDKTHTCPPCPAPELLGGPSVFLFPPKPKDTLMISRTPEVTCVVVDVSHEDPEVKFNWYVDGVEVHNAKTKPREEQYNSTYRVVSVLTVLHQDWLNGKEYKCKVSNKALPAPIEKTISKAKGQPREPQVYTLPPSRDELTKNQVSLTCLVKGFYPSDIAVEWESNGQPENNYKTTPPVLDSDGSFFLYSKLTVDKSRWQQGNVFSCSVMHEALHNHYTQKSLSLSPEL

For the compound `CC(=O)NCCCC[C@H](NC(=O)N[C@H](C(=O)O)C(C)O)c1nc([C@@H](N)CO)no1` (stereo partly shown) [Compound 27], the activation at 0.1 µM is 37%.

In the case of `CC(O)[C@H](NC(=O)N[C@@H](CC(N)=O)c1nc([C@@H](N)CCC(=O)O)no1)C(=O)O` (stereo partly shown) [Compound 2], the activation at 0.1 µM worked out at 68%.

On to `NCCCC[C@H](N)c1noc([C@H](CCC(=O)O)NC(=O)N[C@@H](CO)C(=O)O)n1` [Compound 37], for which the activation at 0.1 µM came to 60%.

In the case of `CC(O)[C@@H](NC(=O)N[C@@H](CC(N)=O)c1nc([C@@H](N)CO)no1)c1nnc(CO)o1` (stereo partly shown) [Compound 79], the activation at 0.1 µM stood at 37%.

In the case of `CCC(C)[C@H](N)c1noc([C@@H](NC(=O)N[C@H](C(=O)O)C(C)O)C(C)CC)n1` (stereo partly shown) [Compound 52], the activation at 0.1 µM was determined as 71%.

Turning to `CCCCCCNC(=O)CC[C@H](NC(=O)N[C@@H](CCC(N)=O)C(=O)N[C@H](C(=O)O)C(C)O)c1nc([C@@H](N)CO)no1` (stereo partly shown) [Compound 78], the activation at 0.1 µM amounted to 42%.

`NC(=O)C[C@H](NC(=O)N[C@@H](CC(N)=O)c1nc([C@@H](N)CC(N)=O)no1)C(=O)O` [Compound 56]: the activation at 0.1 µM stood at 26%.

Consider `NCCCC[C@H](N)c1noc([C@H](CCC(N)=O)NS(=O)(=O)N[C@@H](CO)C(=O)O)n1` [Compound 103], for which the activation at 0.1 µM came out at 79%.

As for `CC(O)[C@H](NC(=O)N[C@@H](CC(N)=O)c1nc([C@@H](N)CCCCN)no1)C(=O)O` (stereo partly shown) [Compound 8], the activation at 0.1 µM came to 48%.

For `NCCCC[C@H](N)c1noc([C@H](CC(N)=O)NC(=O)N[C@@H](CO)C(=O)O)n1` [Compound 31], the activation at 0.1 µM came out at 42%.

As for `CCCCCOC(=O)[C@@H](NC(=O)N[C@@H](CC(N)=O)c1nc([C@@H](N)CO)no1)C(C)O` (stereo partly shown) [Compound 80], the activation at 0.1 µM turned out to be 55%.

Turning to `NCCCC[C@H](NC(=O)N[C@@H](CC(N)=O)c1nc([C@@H](N)CO)no1)C(=O)O` [Compound 5], the activation at 0.1 µM came to 38%.

Regarding `CC(O)[C@H](NC(=O)N[C@@H](Cc1c[nH]c2ccccc12)c1nc([C@@H](N)CO)no1)C(=O)O` (stereo partly shown) [Compound 43], the activation at 0.1 µM was found to be 60%.

Consider `CC(O)[C@H](N)c1noc([C@H](Cc2ccc(O)cc2)NC(=O)N2CCC[C@H]2C(=O)O)n1` (stereo partly shown) [Compound 60], for which the activation at 0.1 µM was 99%.

For `CC(C)[C@H](NC(=O)N[C@@H](CC(N)=O)c1nc([C@@H](N)CCCCN)no1)C(=O)O` [Compound 45], the activation at 0.1 µM came out at 17%.

On to `CC(O)[C@H](NC(=O)N[C@@H](C)c1nc([C@@H](N)CO)no1)C(=O)O` (stereo partly shown) [Compound 17], for which the activation at 0.1 µM amounted to 58%.

Regarding `NC(=O)CC[C@H](NC(=O)N[C@@H](CC(N)=O)c1nc([C@@H](N)CO)no1)C(=O)O` [Compound 28], the activation at 0.1 µM was 36%.

For the compound `NC(=O)C[C@H](NC(=O)N[C@@H](Cc1ccccc1)C(=O)O)c1nc([C@@H](N)CO)no1` [Compound 39], the activation at 0.1 µM was 75%.

As for `CC(O)[C@H](NC(=O)N[C@@H](CC(=O)O)c1nc([C@@H](N)Cc2cnc[nH]2)no1)C(=O)O` (stereo partly shown) [Compound 34], the activation at 0.1 µM is 59%.

On to `C[C@@H](O)[C@H](NC(=O)N[C@@H](CC(N)=O)c1nc([C@@H](N)Cc2c[nH]c3ccccc23)no1)C(=O)O` (stereo in doubt) [Compound 41], for which the activation at 0.1 µM was found to be 78%.

Take `CC(O)[C@H](NC(=O)N[C@@H](CC(N)=O)c1nc([C@@H](N)Cc2ccccc2)no1)C(=O)O` (stereo partly shown) [Compound 13]: the activation at 0.1 µM is 62%.

For `CC(O)[C@H](N)c1noc([C@H](Cc2ccccc2)NC(=O)N2CCC[C@H]2C(=O)O)n1` (stereo partly shown) [Compound 62], the activation at 0.1 µM turned out to be 35%.

Turning to `C[C@H](NC(=O)N[C@@H](CC(N)=O)c1nc([C@@H](N)CO)no1)C(=O)O` [Compound 18], the activation at 0.1 µM worked out at 57%.

On to `CCCCCCNC(=O)CC[C@@H](NC(=O)N[C@H](C(=O)O)C(C)O)c1nc([C@@H](N)CO)no1` (stereo partly shown) [Compound 76], for which the activation at 0.1 µM was determined as 67%.

`CC(C)C[C@H](N)c1noc([C@H](CC(N)=O)NC(=O)CNC(=O)N[C@H](C(=O)O)C(C)O)n1` (stereo partly shown) [Compound 82]: the activation at 0.1 µM amounted to 12%.

As for `NC(=O)C[C@H](NS(=O)(=O)C1CCCC1)c1nc([C@@H](N)CO)no1` [Compound 88], the activation at 0.1 µM is 10%.

In the case of `Cn1cc(CN[C@@H](CC(N)=O)c2nc([C@@H](N)CO)no2)cn1` [Compound 95], the activation at 0.1 µM amounted to 30%.

For the compound `CCC(C)[C@H](NC(=O)N[C@@H](CC(N)=O)c1nc([C@@H](N)CO)no1)C(=O)O` (stereo partly shown) [Compound 3], the activation at 0.1 µM was found to be 73%.

Turning to `CCC(C)[C@H](NC(=O)N[C@H](C(=O)O)C(C)O)c1nc([C@@H](N)CO)no1` (stereo partly shown) [Compound 16], the activation at 0.1 µM turned out to be 50%.

As to `NC(=O)C[C@H](NS(=O)(=O)C1CC1)c1nc([C@@H](N)CO)no1` [Compound 84], the activation at 0.1 µM is 71%.

Turning to `CC(O)[C@H](NC(=O)N[C@@H](CC(N)=O)c1nc([C@H](C)N)no1)C(=O)O` (stereo partly shown) [Compound 15], the activation at 0.1 µM came to 28%.

With `N[C@@H](Cc1ccc(O)cc1)c1noc([C@@H]2CCCCN2C(=O)N[C@@H](Cc2ccc(O)cc2)C(=O)O)n1` [Compound 20], the activation at 0.1 µM was determined as 51%.

As for `N=C(N)NCCC[C@H](N)c1noc([C@H](CC(=O)O)NC(=O)N[C@@H](CO)C(=O)O)n1` [Compound 30], the activation at 0.1 µM was determined as 65%.

Consider `CC(O)[C@H](NC(=O)N[C@@H](CC(N)=O)c1nc([C@@H](N)CO)no1)C(=O)Nc1ccc2c(c1)OCCO2` (stereo partly shown) [Compound 51], for which the activation at 0.1 µM stood at 20%.

On to `CC(O)[C@H](NC(=O)N[C@@H](CCC(=O)O)c1nc([C@@H](N)CCCCN)no1)C(=O)O` (stereo partly shown) [Compound 38], for which the activation at 0.1 µM turned out to be 52%.

Regarding `CCCCCCNC(=O)C[C@H](NC(=O)N[C@H](C(=O)O)C(C)O)c1nc([C@@H](N)CO)no1` (stereo partly shown) [Compound 77], the activation at 0.1 µM was determined as 75%.

On to `CC(O)[C@H](NC(=O)N[C@@H](CCCCN)c1nc([C@@H](N)CO)no1)C(=O)O` (stereo partly shown) [Compound 11], for which the activation at 0.1 µM stood at 66%.

Take `N[C@@H](CO)c1noc([C@H](CO)NC(=O)N[C@@H](CO)C(=O)O)n1` [Compound 47]: the activation at 0.1 µM was found to be 49%.

In the case of `CC(O)[C@H](NC(=O)N[C@@H](CC(N)=O)c1noc([C@@H](N)CO)n1)C(=O)O` (stereo partly shown) [Compound 83], the activation at 0.1 µM was found to be 34%.

With `CC(=O)Nc1ccc(S(=O)(=O)N[C@@H](CC(N)=O)c2nc([C@@H](N)CO)no2)cc1` [Compound 90], the activation at 0.1 µM is 66%.

As for `CCC(C)[C@H](NC(=O)N[C@@H](CCC(=O)O)C(=O)O)c1nc([C@@H](N)CCC(N)=O)no1` (stereo partly shown) [Compound 10], the activation at 0.1 µM was 84%.

Consider `CC(O)[C@H](NC(=O)N[C@@H](CC(N)=O)c1nc([C@@H](N)C(C)C)no1)C(=O)O` (stereo partly shown) [Compound 40], for which the activation at 0.1 µM turned out to be 67%.

As to `CCC(C)[C@H](N)c1noc([C@H](CC(N)=O)NC(=O)N[C@H](C(=O)O)C(C)O)n1` (stereo partly shown) [Compound 9], the activation at 0.1 µM is 84%.
